Source: ChEMBL document CHEMBL3399941, “Discovery of heterocyclic sulfonamides as sphingosine 1-phosphate receptor 1 (S1P1) antagonists” (Bioorg Med Chem Lett, 2015)
Values after ≈ are worked out from the molar mass of the structure shown.

Key:
[1] = Solubility in pH 7.4 buffer; assay type: physicochemical
[2] = Protein binding in rat plasma assessed as unbound fraction; assay type: ADME, cell-free
[3] = Lipophilicity, log D of the compound; assay type: physicochemical; settings: octanol/water
[4] = Protein binding in human plasma assessed as unbound fraction; assay type: ADME, cell-free
Rattus norvegicus [5] = assay: AUC in rat at 3 mg/kg, po; assay type: ADME, organism-based, Plasma; design: dose 3 mg/kg, route oral; settings: in vivo
Liver microsome = assay: (§1) Intrinsic clearance in human liver microsomes; assay type: ADME; settings: microsomes
[6] = Apparent permeability from apical to basolateral side in human Caco2 cells; assay type: ADME, cell-based; settings: Caco-2
[7] = Intrinsic clearance in rat hepatocytes assessed per 10^6 cells; assay type: ADME, cell-based, Hepatocyte; settings: read-out: CLH
[8] = Volume of distribution at steady state in rat at 1 mg/kg, iv; assay type: ADME, organism-based; design: dose 1 mg/kg, route intravenous; settings: in vivo, read-out: Vdss
[9] = Apparent permeability from basolateral to apical side in human Caco2 cells; assay type: ADME, cell-based; settings: Caco-2
[10] = Cmax in rat at 3 mg/kg, po; assay type: ADME, organism-based; design: dose 3 mg/kg, route oral; settings: in vivo
Rattus norvegicus [11] = assay: Oral bioavailability in rat at 3 mg/kg; assay type: ADME, organism-based; settings: in vivo
[12] = target: Sphingosine 1-phosphate receptor 1 (Homo sapiens, UniProt P21453); assay: Antagonist activity against S1P1R in human U2OS cells expressing beta-arrestin/green fluorescent protein assessed as effect on S1P-induced beta-arrestin GFP relocalization incubated for 30 mins by Hoechst 33342 staining based receptor translocation assay; assay type: cell-based
Sphingosine 1-phosphate receptor 1, sequence (P21453 whole entry): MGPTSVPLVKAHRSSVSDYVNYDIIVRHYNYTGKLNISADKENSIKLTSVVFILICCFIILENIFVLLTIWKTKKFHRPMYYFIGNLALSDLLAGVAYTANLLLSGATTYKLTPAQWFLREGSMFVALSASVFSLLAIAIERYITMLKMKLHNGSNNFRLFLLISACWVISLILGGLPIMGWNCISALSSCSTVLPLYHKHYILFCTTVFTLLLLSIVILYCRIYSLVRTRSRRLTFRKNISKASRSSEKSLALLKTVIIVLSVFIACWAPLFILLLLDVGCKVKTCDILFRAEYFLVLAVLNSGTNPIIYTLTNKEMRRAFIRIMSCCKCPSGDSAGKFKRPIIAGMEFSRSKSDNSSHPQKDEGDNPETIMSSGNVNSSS

[13] = Half life in rat at 1 mg/kg, iv; assay type: ADME, organism-based; design: dose 1 mg/kg, route intravenous; settings: in vivo
[14] = as §1; assay type: ADME; settings: liver microsomes, read-out: CLH
[15] = Intrinsic clearance in human hepatocytes assessed per 10^6 cells; assay type: ADME, cell-based, Hepatocyte; settings: read-out: CLH

| EC50 [12] | SMILES | also measured |
| --- | --- | --- |
| 250 nM | CCc1nnc([C@@H](C)NS(=O)(=O)c2ccc(Cl)cc2)n1CC | solubility [1]: > 600 µM; fraction unbound [2]: 0.5; logD [3]: 1.4; fraction unbound [4]: 0.34; AUC (Rattus norvegicus [5]): 2.7 µM·h; microsomal CLint (Liver microsome): 5.5 µL/min/mg; Papp A→B [6]: 11.1 ×10⁻⁶ cm/s; hepatocyte CLint [7]: 10.2 µL/min/1e6 cells; Vd [8]: 0.7 L/kg; Papp B→A [9]: 22.5 ×10⁻⁶ cm/s; Cmax [10]: 1600 nM; F (Rattus norvegicus [11]): 11%; half-life [13]: 1.4 h |
| > 33000 nM | CCc1nnc([C@H](C)NS(=O)(=O)c2ccc(Cl)cc2)n1CC | – |
| 1030 nM | C=CCSc1nnc(C(Cc2ccccc2)NS(=O)(=O)c2ccc(Cl)cc2)n1C (racemic) | – |
| 22100 nM | Cn1cnnc1C(Cc1ccccc1)NS(=O)(=O)c1ccc(Cl)cc1 (racemic) | – |
| 1830 nM | Cc1nnc(C(Cc2ccccc2)NS(=O)(=O)c2ccc(Cl)cc2)n1C (racemic) | – |
| 340 nM | CCc1nnc(C(Cc2ccccc2)NS(=O)(=O)c2ccc(Cl)cc2)n1C (racemic) | – |
| 3230 nM | CCCCc1nnc(C(Cc2ccccc2)NS(=O)(=O)c2ccc(Cl)cc2)n1C (racemic) | – |
| 3170 nM | Cn1c(C(Cc2ccccc2)NS(=O)(=O)c2ccc(Cl)cc2)nnc1C(F)(F)F (racemic) | – |
| 460 nM | CCn1c(C)nnc1C(Cc1ccccc1)NS(=O)(=O)c1ccc(Cl)cc1 (racemic) | – |
| 2690 nM | CCCn1c(C)nnc1C(Cc1ccccc1)NS(=O)(=O)c1ccc(Cl)cc1 (racemic) | – |
| 6340 nM | Cc1nnc(C(Cc2ccccc2)NS(=O)(=O)c2ccc(Cl)cc2)n1C(C)C (racemic) | – |
| > 100000 nM | Cc1nnc(C(Cc2ccccc2)NS(=O)(=O)c2ccc(Cl)cc2)n1Cc1ccccc1 (racemic) | – |
| 220 nM | CCc1nnc(C(Cc2ccccc2)NS(=O)(=O)c2ccc(Cl)cc2)n1CC (racemic) | – |
| 490 nM | CCn1c(C)nnc1C(Cc1ccc(F)cc1)NS(=O)(=O)c1ccc(Cl)cc1 (racemic) | – |
| 2370 nM | CCn1c(C)nnc1C(Cc1cccnc1)NS(=O)(=O)c1ccc(Cl)cc1 (racemic) | – |
| 2250 nM | C=CCC(NS(=O)(=O)c1ccc(Cl)cc1)c1nnc(C)n1CC (racemic) | – |
| 6190 nM | CCCC(NS(=O)(=O)c1ccc(Cl)cc1)c1nnc(C)n1CC (racemic) | – |
| 7690 nM | CCn1c(C)nnc1C(CC1CC1)NS(=O)(=O)c1ccc(Cl)cc1 (racemic) | – |
| 670 nM | CCn1c(C)nnc1C(C)NS(=O)(=O)c1ccc(Cl)cc1 (racemic) | solubility [1]: 380 µM (≈ 125 µg/mL); microsomal CLint [14]: < 5 µL/min/mg; hepatocyte CLint [15]: < 2 µL/min/1e6 cells |
| 15200 nM | CCc1nnc(C(Cc2ccccc2)NS(=O)(=O)c2ccc(Cl)cc2)o1 (racemic) | microsomal CLint [14]: > 100 µL/min/mg |
| > 100000 nM | Cc1ncc(C(Cc2ccccc2)NS(=O)(=O)c2ccc(Cl)cc2)n1C (racemic) | microsomal CLint [14]: > 100 µL/min/mg |
| 1610 nM | Cc1cnc(C(Cc2ccccc2)NS(=O)(=O)c2ccc(Cl)cc2)n1C (racemic) | microsomal CLint [14]: > 100 µL/min/mg |
| 3030 nM | CCc1onc(C(C)NS(=O)(=O)c2ccc(Cl)cc2)c1CC (racemic) | microsomal CLint [14]: > 100 µL/min/mg |
| 720 nM | CCc1snc(C(C)NS(=O)(=O)c2ccc(Cl)cc2)c1CC (racemic) | microsomal CLint [14]: > 100 µL/min/mg |
| 310 nM | CCc1[nH]nc(C(C)NS(=O)(=O)c2ccc(Cl)cc2)c1CC (racemic) | microsomal CLint [14]: > 100 µL/min/mg |
| 410 nM | CCc1nnc(C(C)NS(=O)(=O)c2ccc(Cl)cc2)n1CC (racemic) | – |
